This note sets out measurements from patent US10766893B2 (priority 2017, dated 2020).

Holding throughout (assay): biochemical
Common to all, as to type: biochemical
Common to all, as to details: 15 nM tritium labelled cAMP, 1 hr at room temperature

Test [1] concerns the target PDE1C (Homo sapiens (Human), UniProt Q14123). The source says:
(§1) Table 1 lists the IC50 value for inhibition of PDE1 by the compounds of the invention. […] PDE1 assays are described in the Experimental Section.

Test [2] has as its target PDE1A (Homo sapiens (Human), UniProt P54750).
Description: as §1

For test [3], the target named is PDE1B (Homo sapiens (Human), UniProt Q01064).
Chain of PDE1B (Q01064 whole entry): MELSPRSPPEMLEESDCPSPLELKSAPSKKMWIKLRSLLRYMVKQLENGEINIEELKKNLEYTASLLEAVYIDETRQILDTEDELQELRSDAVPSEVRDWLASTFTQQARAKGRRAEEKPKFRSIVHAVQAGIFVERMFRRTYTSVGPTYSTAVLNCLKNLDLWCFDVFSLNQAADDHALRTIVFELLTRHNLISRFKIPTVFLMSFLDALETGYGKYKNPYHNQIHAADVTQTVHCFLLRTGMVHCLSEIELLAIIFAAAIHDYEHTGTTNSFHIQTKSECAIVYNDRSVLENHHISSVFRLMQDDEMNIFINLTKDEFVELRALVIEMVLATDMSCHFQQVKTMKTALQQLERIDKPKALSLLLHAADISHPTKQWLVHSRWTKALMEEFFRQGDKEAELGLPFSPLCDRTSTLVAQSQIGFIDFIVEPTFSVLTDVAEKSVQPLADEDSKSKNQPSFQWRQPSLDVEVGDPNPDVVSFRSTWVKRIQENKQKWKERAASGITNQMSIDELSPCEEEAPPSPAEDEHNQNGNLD
Description: as §1

Chain of PDE1A (P54750 whole entry): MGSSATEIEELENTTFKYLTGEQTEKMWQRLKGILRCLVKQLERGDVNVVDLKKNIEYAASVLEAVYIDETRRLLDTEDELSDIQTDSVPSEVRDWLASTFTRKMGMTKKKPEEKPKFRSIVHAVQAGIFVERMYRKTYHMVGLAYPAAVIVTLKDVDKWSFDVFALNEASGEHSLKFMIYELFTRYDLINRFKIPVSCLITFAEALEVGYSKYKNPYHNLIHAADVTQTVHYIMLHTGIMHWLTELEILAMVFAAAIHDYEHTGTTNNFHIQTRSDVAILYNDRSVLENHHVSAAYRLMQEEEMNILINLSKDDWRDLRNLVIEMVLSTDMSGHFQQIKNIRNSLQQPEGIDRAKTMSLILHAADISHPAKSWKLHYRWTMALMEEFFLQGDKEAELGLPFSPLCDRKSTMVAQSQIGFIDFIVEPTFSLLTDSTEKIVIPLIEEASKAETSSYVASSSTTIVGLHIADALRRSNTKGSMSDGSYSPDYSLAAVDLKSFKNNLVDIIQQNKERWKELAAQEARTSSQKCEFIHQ
Chain of PDE1C (Q14123 whole entry): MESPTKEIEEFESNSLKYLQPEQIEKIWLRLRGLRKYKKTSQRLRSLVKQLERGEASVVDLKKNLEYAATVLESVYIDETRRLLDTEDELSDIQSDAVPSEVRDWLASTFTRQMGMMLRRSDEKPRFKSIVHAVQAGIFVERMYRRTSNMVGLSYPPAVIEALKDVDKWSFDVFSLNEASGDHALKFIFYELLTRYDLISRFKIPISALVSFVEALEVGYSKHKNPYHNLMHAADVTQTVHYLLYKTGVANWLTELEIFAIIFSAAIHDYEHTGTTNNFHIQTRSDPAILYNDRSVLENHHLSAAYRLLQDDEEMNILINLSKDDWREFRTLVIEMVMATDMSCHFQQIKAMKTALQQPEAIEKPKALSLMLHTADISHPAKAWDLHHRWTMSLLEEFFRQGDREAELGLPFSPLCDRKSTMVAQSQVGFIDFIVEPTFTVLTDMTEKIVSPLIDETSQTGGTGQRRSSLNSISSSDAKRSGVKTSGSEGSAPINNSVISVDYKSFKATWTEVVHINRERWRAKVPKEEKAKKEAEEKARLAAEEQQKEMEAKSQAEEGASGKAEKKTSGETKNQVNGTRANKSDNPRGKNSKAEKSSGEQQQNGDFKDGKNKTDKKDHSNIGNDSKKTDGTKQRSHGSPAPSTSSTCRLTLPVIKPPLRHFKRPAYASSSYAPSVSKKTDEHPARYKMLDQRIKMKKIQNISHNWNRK

On to `CCOc1ncccc1-c1cc(NCc2cccc3oc(C)nc23)c2c(n1)c(C)nn2C(C)C` [Example 11a, 5-(2-ethoxy-3-pyridyl)-1-isopropyl-3-methyl-N-[(2-methyl-1,3-benzoxazol-4-yl)methyl]pyrazolo[4,3-b]pyridin-7-amine], for which the values for the IC50 in test [1], in test [2] and in test [3] were 26 nM, 18 nM and 4 nM, respectively.

Turning to `CCOc1nnccc1-c1cc(NCc2nccc(C)n2)c2c(n1)c(C)nn2C(C)C` [Example 11b, 5-(3-ethoxypyridazin-4-yl)-1-isopropyl-3-methyl-N-[(4-methylpyrimidin-2-yl)methyl]pyrazolo[4,3-b]pyridin-7-amine], the IC50 in test [1] is 160 nM; in test [2] it was 38 nM; in test [3] it was 4.4 nM.

With `CCOc1ncccc1-c1cc(NCc2ccc3oc(C)nc3c2)c2c(n1)c(C)nn2C(C)C` [Example 12a, 5-(2-ethoxy-3-pyridyl)-1-isopropyl-3-methyl-N-[(2-methyl-1,3-benzoxazol-5-yl)methyl]pyrazolo[4,3-b]pyridin-7-amine], the IC50 in test [1] was determined as 31 nM; in test [2], 8.7 nM; in test [3] it was 0.81 nM.

For `CCOc1cnccc1-c1cc(NCc2cccc(F)n2)c2c(n1)c(C)nn2C(C)C` [Example 12b, 5-(3-ethoxy-4-pyridyl)-N-[(6-fluoro-2-pyridyl)methyl]-1-isopropyl-3-methyl-pyrazolo[4,3-b]pyridin-7-amine], the IC50 in test [1] turned out to be 61 nM; in test [2], 22 nM; in test [3] it was 1.1 nM.

On to `CCOc1nnccc1-c1cc(NCc2cccc3ocnc23)c2c(n1)c(C)nn2C(C)C` [Example 13a, N-(1,3-benzoxazol-4-ylmethyl)-5-(3-ethoxypyridazin-4-yl)-1-isopropyl-3-methyl-pyrazolo[4,3-b]pyridin-7-amine], for which the IC50 is 93 nM in test [1], 39 nM in test [2] and 1.7 nM in test [3].

On to `CCOc1cnccc1-c1cc(NCc2cc[nH]n2)c2c(n1)c(C)nn2C(C)C` [Example 13b, 5-(3-ethoxy-4-pyridyl)-1-isopropyl-3-methyl-N-(1H-pyrazol-3-ylmethyl)pyrazolo[4,3-b]pyridin-7-amine], for which the IC50 in test [1] worked out at 56 nM; in test [2] it was 24 nM; in test [3] it was 2.5 nM.

On to `CCOc1ncccc1-c1cc(NCc2nccc3nncn23)c2c(n1)c(C)nn2C(C)C` [Example 15a, N-([1,2,4]triazolo[4,3-c]pyrimidin-5-ylmethyl)-5-(2-ethoxypyridin-3-yl)-1-isopropyl-3-methyl-1H-pyrazolo[4,3-b]pyridin-7-amine], for which the IC50 stood at 43 nM in test [1], 30 nM in test [2] and 4.8 nM in test [3].

For the compound `CCOc1cnccc1-c1cc(NCc2ccccn2)c2c(n1)c(C)nn2C(C)C` [Example 15b, 5-(3-ethoxy-4-pyridyl)-1-isopropyl-3-methyl-N-(2-pyridylmethyl)pyrazolo[4,3-b]pyridin-7-amine], the IC50 in test [1] amounted to 55 nM; in test [2], 17 nM; in test [3], 1.4 nM.

Take `CCOc1ncccc1-c1cc(NCc2nccc3nccn23)c2c(n1)c(C)nn2C(C)C` [Example 16a, 5-(2-ethoxypyridin-3-yl)-N-(imidazo[1,2-c]pyrimidin-5-ylmethyl)-1-isopropyl-3-methyl-1H-pyrazolo[4,3-b]pyridin-7-amine]: the IC50 in test [1] was 44 nM; in test [2], 35 nM; in test [3], 4 nM.

For `CCOc1nnccc1-c1cc(NCc2cccnc2F)c2c(n1)c(C)nn2C(C)C` [Example 16b, 5-(3-ethoxypyridazin-4-yl)-N-[(2-fluoro-3-pyridyl)methyl]-1-isopropyl-3-methyl-pyrazolo[4,3-b]pyridin-7-amine], the IC50 came out at 50 nM in test [1], 18 nM in test [2] and 3.4 nM in test [3].

On to `CCOc1cnccc1-c1cc(NCc2cccnc2F)c2c(n1)c(C)nn2C(C)C` [Example 17b, 5-(3-ethoxy-4-pyridyl)-N-[(2-fluoro-3-pyridyl)methyl]-1-isopropyl-3-methyl-pyrazolo[4,3-b]pyridin-7-amine], for which the concentration for half-maximal inhibition (IC50) was determined as 37 nM in test [1], 20 nM in test [2] and 2.4 nM in test [3].

With `CCOc1nnccc1-c1cc(NCc2ncn(C)n2)c2c(n1)c(C)nn2C(C)C` [Example 18b, 5-(3-ethoxypyridazin-4-yl)-1-isopropyl-3-methyl-N-[(1-methyl-1,2,4-triazol-3-yl)methyl]pyrazolo[4,3-b]pyridin-7-amine], the IC50 stood at 17 nM in test [1], 3.6 nM in test [2] and 0.59 nM in test [3].

Consider `CCOc1cnccc1-c1cc(NCc2ncn(C)n2)c2c(n1)c(C)nn2C(C)C` [Example 19b, 5-(3-ethoxy-4-pyridyl)-1-isopropyl-3-methyl-N-[(1-methyl-1,2,4-triazol-3-yl)methyl]pyrazolo[4,3-b]pyridin-7-amine], for which the IC50 in test [1] is 22 nM; in test [2], 11 nM; in test [3] it was 0.91 nM.

On to `CCOc1nnccc1-c1cc(NCc2cnc(C)s2)c2c(n1)c(C)nn2C(C)C` [Example 20b, 5-(3-ethoxypyridazin-4-yl)-1-isopropyl-3-methyl-N-[(2-methylthiazol-5-yl)methyl]pyrazolo[4,3-b]pyridin-7-amine], for which the IC50 amounted to 24 nM in test [1], 5.7 nM in test [2] and 1.1 nM in test [3].

Regarding `CCOc1cnccc1-c1cc(NCc2cnc(C)s2)c2c(n1)c(C)nn2C(C)C` [Example 21b, 5-(3-ethoxy-4-pyridyl)-1-isopropyl-3-methyl-N-[(2-methylthiazol-5-yl)methyl]pyrazolo[4,3-b]pyridin-7-amine], the IC50 is 14 nM in test [1], 5.6 nM in test [2] and 0.64 nM in test [3].

As to `CCOc1cnccc1-c1cc(NCc2cc(C)[nH]n2)c2c(n1)c(C)nn2C(C)C` [Example 23b, 5-(3-ethoxy-4-pyridyl)-1-isopropyl-3-methyl-N-[(5-methyl-1H-pyrazol-3-yl)methyl]pyrazolo[4,3-b]pyridin-7-amine], the concentration for half-maximal inhibition (IC50) in test [1] was determined as 12 nM; in test [2], 5.5 nM; in test [3] it was 0.55 nM.

With `CCOc1cnccc1-c1cc(NCc2cccc(OC)n2)c2c(n1)c(C)nn2C(C)C` [Example 25b, 5-(3-ethoxy-4-pyridyl)-1-isopropyl-N-[(6-methoxy-2-pyridyl)methyl]-3-methyl-pyrazolo[4,3-b]pyridin-7-amine], the IC50 amounted to 53 nM in test [1], 17 nM in test [2] and 1.6 nM in test [3].

For `CCOc1cnccc1-c1cc(NCc2ccn(C)n2)c2c(n1)c(C)nn2C(C)C` [Example 27b, 5-(3-ethoxy-4-pyridyl)-1-isopropyl-3-methyl-N-[(1-methylpyrazol-3-yl)methyl]pyrazolo[4,3-b]pyridin-7-amine], the IC50 came to 42 nM in test [1], 17 nM in test [2] and 1.6 nM in test [3].

As for `COc1cnccc1-c1cc(NCc2cnn(C)c2)c2c(n1)c(C)nn2C(C)C` [Example 29b, 1-isopropyl-5-(3-methoxy-4-pyridyl)-3-methyl-N-[(1-methylpyrazol-4-yl)methyl]pyrazolo[4,3-b]pyridin-7-amine], the IC50 in test [1] came to 44 nM; in test [2], 32 nM; in test [3], 4.9 nM.

By IC50 is commonly meant the concentration at which inhibition is half-maximal. Higher therefore signals weaker potency in that assay.
